# Measurements: patent publication EP4667466A1, “PROTAC DEGRADERS OF MLLT1 AND/OR MLLT3” (priority 2024, dated 2025)
# Assays:
# MV4-11 cells = assay: MV4-11 cellular proliferation assay, Assay Format A (CellTiter-Glo, 120 hours); type: cell-based; settings: Homo sapiens, Assay method A, read-out: MV4-11 antiproliferative IC50
# Method: An MV4-11 proliferation assay was used to test the ability of compounds to reduce cell viability.
# After 120 hours of treatment, cells were incubated for 10 min at RT with the CellTiter-Glo (CTG) reagent (G7571, Promega). Measurement of the luminescence signal was performed on a microplate reader (Ensight, PerkinElmer). CTG reagent measures the amount of ATP, which is directly proportional to the number of cells, to determine the number of viable cells in culture.
# The data were analysed as follows: Data normalization, N(x) = (x−〈cr〉)/(〈sr〉−〈cr〉) × 100 [formula] where x is the measured raw signal value of a well, (cr) is the median of the measured signal values for the Central Reference (DMSO) wells on a plate, (sr) is the median of the measured signal values for the Scale Reference (reference compound) wells on a plate. Curve fitting, S0 + (Sinf −S0)/(1 + (((AC50)/(10^c)))^n) [formula] where the experimental set-up assumes the Hill parameters in certain ranges: S0 ~ Central Reference (CR) from normalization (= Bottom), Sinf ~ Scale Reference (SR) from normalization (= Top), nHill ~ 1, AC50 ~ within the measured concentration range.
# MLLT1 = biological target: T1, MLLT1 (Homo sapiens, UniProt Q03111); assay: MLLT1 degradation assay (JESS automated chemiluminescent detection) in MV4-11 cells; type: cell-based; settings: 24h, with respect to DMSO control
# T1 construct: endogenous in cells; host or cells: MV4-11 (ATCC CRL-9591)
# T1 sequence (Q03111 1-559): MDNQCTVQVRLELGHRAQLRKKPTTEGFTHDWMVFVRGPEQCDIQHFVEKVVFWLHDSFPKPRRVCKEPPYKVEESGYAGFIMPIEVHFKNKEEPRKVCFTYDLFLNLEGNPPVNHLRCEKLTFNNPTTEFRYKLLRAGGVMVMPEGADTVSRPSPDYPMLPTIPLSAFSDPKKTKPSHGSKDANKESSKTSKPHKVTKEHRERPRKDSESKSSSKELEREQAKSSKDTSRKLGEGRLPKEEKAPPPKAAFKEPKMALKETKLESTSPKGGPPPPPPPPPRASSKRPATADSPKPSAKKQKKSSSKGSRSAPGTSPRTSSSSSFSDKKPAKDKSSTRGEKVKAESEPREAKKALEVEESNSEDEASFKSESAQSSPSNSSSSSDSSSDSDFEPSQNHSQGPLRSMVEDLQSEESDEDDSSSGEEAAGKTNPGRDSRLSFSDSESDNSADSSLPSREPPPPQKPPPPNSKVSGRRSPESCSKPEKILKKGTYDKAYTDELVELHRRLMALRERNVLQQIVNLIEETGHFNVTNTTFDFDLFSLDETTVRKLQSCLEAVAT
# How it was run: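 MV4-11 cells were treated with 1000, 100 or 10 nM compound (0.1% DMSO) for 24 h at 37 °C. Lysates (4 µg protein) were probed for MLLT1 and GAPDH by JESS capillary chemiluminescence. Degradation was calculated from band peak areas versus DMSO control and binned into categories A–D.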
SMILES,IC50 (MV4-11 cells) [µM],inhibition at 0.01 µM (MLLT1) [%],inhibition at 0.1 µM (MLLT1) [%],inhibition at 1 µM (MLLT1) [%]
"Cc1nn(CCCCCCCC#Cc2cccc3c2CN(C2CCC(=O)NC2=O)C3=O)c2cc(C(=O)Nc3cc4[nH]c([C@H]5CCCN5C)cc4cn3)ccc12 (mixture of isomers) [Example 1, 1-(9-(2-(2,6-dioxopiperidin-3-yl)-1-oxoisoindolin-4-yl)non-8-yn-1-yl)-3-methyl-N-(2-((R)-1-methylpyrrolidin-2-yl)-1H-pyrrolo[3,2-c]pyridin-6-yl)-1H-indazole-6-carboxamide]",0.004,≥ 75,≥ 75,≥ 75
"Cc1nn(CCCCCCCCNc2ccc3c(c2)C(=O)N(C2CCC(=O)NC2=O)C3=O)c2cc(C(=O)Nc3cc4[nH]c([C@@H]5CCCN5C)cc4cn3)ccc12 (stereo partly drawn) [Example 15, 1-(8-{[2-(2,6-dioxopiperidin-3-yl)-1,3-dioxoisoindol-5-yl]amino}octyl)-3-methyl-N-{2-[(2S)-1-methylpyrrolidin-2-yl]-1H-pyrrolo[3,2-c]pyridin-6-yl}indazole-6-carboxamide]",0.012,< 25,≥ 75,≥ 75
"Cc1nn(CCCCCCCCNc2cccc3c2CN(C2CCC(=O)NC2=O)C3=O)c2cc(C(=O)Nc3cc4[nH]c([C@H]5CCCN5C)cc4cn3)ccc12 (stereo partly drawn) [Example 16, 1-(8-{[2-(2,6-dioxopiperidin-3-yl)-1-oxo-3H-isoindol-4-yl]amino}octyl)-3-methyl-N-{2-[(2R)-1-methylpyrrolidin-2-yl]-1H-pyrrolo[3,2-c]pyridin-6-yl}indazole-6-carboxamide]",0.009,≥ 75,≥ 75,≥ 75
"Cc1nn(CCCCNc2cccc3c2C(=O)N(C2CCC(=O)NC2=O)C3=O)c2cc(C(=O)Nc3cc4[nH]c([C@H]5CCCN5C)cc4cn3)ccc12 (stereo partly drawn) [Example 21, 1-(4-((2-(2,6-dioxopiperidin-3-yl)-1,3-dioxoisoindolin-4-yl)amino)butyl)-3-methyl-N-(2-((R)-1-methylpyrrolidin-2-yl)-1H-pyrrolo[3,2-c]pyridin-6-yl)-1H-indazole-6-carboxamide]",0.011,≥ 75,≥ 75,≥ 75
"Cc1nn(CCCCCCNc2cccc3c2C(=O)N(C2CCC(=O)NC2=O)C3=O)c2cc(C(=O)Nc3cc4[nH]c([C@H]5CCCN5C)cc4cn3)ccc12 (stereo partly drawn) [Example 22, 1-(6-{[2-(2,6-dioxopiperidin-3-yl)-1,3-dioxoisoindol-4-yl]amino}hexyl)-3-methyl-N-{2-[(2R)-1-methylpyrrolidin-2-yl]-1H-pyrrolo[3,2-c]pyridin-6-yl}indazole-6-carboxamide]",0.008,≥ 75,≥ 75,≥ 75
"Cc1nn(CCOCCOCCNc2cccc3c2C(=O)N(C2CCC(=O)NC2=O)C3=O)c2cc(C(=O)Nc3cc4[nH]c([C@H]5CCCN5C)cc4cn3)ccc12 (stereo partly drawn) [Example 25, 1-(2-(2-(2-((2-(2,6-dioxopiperidin-3-yl)-1,3-dioxoisoindolin-4-yl)amino)ethoxy)ethoxy)ethyl)-3-methyl-N-(2-((R)-1-methylpyrrolidin-2-yl)-1H-pyrrolo[3,2-c]pyridin-6-yl)-1H-indazole-6-carboxamide]",0.011,–,≥ 75,≥ 75
"Cc1nn(CCOCCNc2cccc3c2C(=O)N(C2CCC(=O)NC2=O)C3=O)c2cc(C(=O)Nc3cc4[nH]c([C@H]5CCCN5C)cc4cn3)ccc12 (stereo partly drawn) [Example 26, 1-(2-(2-((2-(2,6-dioxopiperidin-3-yl)-1,3-dioxoisoindolin-4yl)amino)ethoxy)ethyl)-3-methyl-N-(2-((R)-1-methylpyrrolidin-2-yl)-1H-pyrrolo[3,2-c]pyridin-6-yl)-1H-indazole-6-carboxamide]",0.014,–,≥ 75,≥ 75
"Cc1nn(CCCCCC#Cc2cccc3c2CN(C2CCC(=O)NC2=O)C3=O)c2cc(C(=O)Nc3cc4[nH]c([C@H]5CCCN5C)cc4cn3)ccc12 (stereo partly drawn) [Example 30, 1-(7-(2-(2,6-dioxopiperidin-3-yl)-1-oxoisoindolin-4-yl)hept-6-yn-1-yl)-3-methyl-N-(2-((R)-1-methylpyrrolidin-2-yl)-1H-pyrrolo [3,2-c]pyridin-6-yl)-1H-indazole-6-carboxamide]",0.006,≥ 75,≥ 75,≥ 75
"Cc1nn(CCCC#Cc2cccc3c2CN(C2CCC(=O)NC2=O)C3=O)c2cc(C(=O)Nc3cc4[nH]c([C@H]5CCCN5C)cc4cn3)ccc12 (stereo partly drawn) [Example 32, 1-(5-(2-(2,6-dioxopiperidin-3-yl)-1-oxoisoindolin-4-yl)pent-4-yn-1-yl)-3-methyl-N-(2-((R)-1-methylpyrrolidin-2-yl)-1H-pyrrolo[3,2-c]pyridin-6-yl)-1H-indazole-6-carboxamide]",0.015,50 to 75,≥ 75,50 to 75
"[2H]C([2H])([2H])N1CCC[C@@H]1c1cc2cnc(NC(=O)c3ccc4c(C)nn(CCCCCCCC#Cc5cccc6c5CN(C5CCC(=O)NC5=O)C6=O)c4c3)cc2[nH]1 (stereo partly drawn) [Example 44, 1-(9-(2-(2,6-dioxopiperidin-3-yl)-1-oxoisoindolin-4-yl)non-8-yn-1-yl)-3-methyl-N-(2-((R)-1-(methyl-d3)pyrrolidin-2-yl)-1H-pyrrolo[3,2-c]pyridin-6-yl)-1H-indazole-6-carboxamide]",0.005,50 to 75,≥ 75,≥ 75
"Cc1nn(CC#Cc2cccc3c2CN(C2CCC(=O)NC2=O)C3=O)c2cc(C(=O)Nc3cc4[nH]c([C@H]5CCCN5C)cc4cn3)ccc12 (stereo partly drawn) [Example 72, 1-(3-(2-(2,6-dioxopiperidin-3-yl)-1-oxoisoindolin-4-yl)prop-2-yn-1-yl)-3-methyl-N (2-((R)-1-methylpyrrolidin-2-yl)-1H pyrrolo[3,2-c]pyridin-6-yl)-1H-indazole-6-carboxamide]",–,≥ 75,≥ 75,50 to 75
"Cc1nn(CCCCCCC2CCN(c3cccc(C(=O)N[C@H]4CCC(=O)NC4=O)n3)CC2)c2cc(C(=O)Nc3cc4[nH]c([C@H]5CCCN5C)cc4cn3)ccc12 [Example 73, 1-(6-(1-(6-(((S)-2,6-dioxopiperidin-3-yl)carbamoyl)pyridin-2-yl)piperidin-4-yl)hexyl)-3-methyl-N-(2-((R)-1-methylpyrrolidin-2-yl)-1H-pyrrolo[3,2-c]pyridin-6-yl)-1H-indazole-6-carboxamide]",–,50 to 75,≥ 75,≥ 75
"Cc1nn(C2CCC(CCCC#Cc3cccc4c3CN(C3CCC(=O)NC3=O)C4=O)CC2)c2cc(C(=O)Nc3cc4[nH]c([C@H]5CCCN5C)cc4cn3)ccc12 (stereo partly drawn) [Example 74, 1-(4-(5-(2-(2,6-dioxopiperidin-3-yl)-1-oxoisoindolin-4-yl)pent-4-yn-1-yl)cyclohexyl)-3-methyl-N-(2-((R)-1-methylpyrrolidin-2-yl)-1H-pyrrolo[3,2-c]pyridin-6-yl)-1H-indazole-6-carboxamide]",–,50 to 75,50 to 75,≥ 75
